{
  "source": "patent US6759207B2",
  "about": "“Fluorogenic or fluorescent reporter molecules and their applications for whole-cell fluorescence screening assays for caspases and other enzymes and the use thereof” (Cytovia, Inc., priority 1997, dated 2004)",
  "assay_type_in_all_cases": "biochemical",
  "conditions_in_all_cases": "10 μM substrate, 37° C.",
  "key": {"[1]": {"target": "T1, recombinant human caspase-7 (Homo sapiens, UniProt P55210)", "T1 sequence (P55210 24-198 limits assumed)": "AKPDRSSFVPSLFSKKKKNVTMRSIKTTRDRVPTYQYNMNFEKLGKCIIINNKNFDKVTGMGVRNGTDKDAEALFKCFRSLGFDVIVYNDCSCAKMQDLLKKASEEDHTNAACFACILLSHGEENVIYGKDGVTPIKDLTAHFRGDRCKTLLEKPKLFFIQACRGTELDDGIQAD", "T1 sequence (P55210 207-303 limits assumed)": "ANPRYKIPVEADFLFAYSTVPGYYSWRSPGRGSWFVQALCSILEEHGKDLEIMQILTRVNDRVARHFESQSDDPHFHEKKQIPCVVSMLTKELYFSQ", "test": "Cleavage of caspase-8 substrate by recombinant human caspase-7", "description": "(§1) N-Ac-LEVD-N-ethoxycarbonyl R110 SEQ ID NO:9 was assayed by recombinant human caspase-3, 6, 7, and 8. The assays were carried out at 37° C. in 96-well plates in a 100 μL incubation containing recombinant human caspase, 10 μM of N-Ac-LEVD-N′-ethoxycarbonyl R110 SEQ ID NO:9, and caspase assay buffer (40 mM PIPES, pH 7.2; 100 mM NaCl; 10% sucrose; 0.1% CHAPS; 1 mM EDTA; 10 mM DTT). At the end of the incubation period, the fluorescence was determined on a Bio-Tek FL500 fluorescence microplate reader using excitation and emission wavelengths of 485 and 530 nm, respectively. In order to correct for the endogenous fluorescence of the uncleaved substrate, controls were run which consisted of samples containing 10 μM N-Ac-LEVD-N′-ethoxycarbonyl R110 SEQ ID NO:9 without enzyme (“enzyme blanks”). Additional controls included samples containing the caspase inhibitor Ac-DEVD-CHO SEQ ID NO:5. […] Caspase-3 cleaved N-Ac-LEVD-N′-ethoxycarbonyl R110 SEQ ID NO:9 less efficiently, yielding a signal that was about 5-fold above the enzyme blank value."}, "[2]": {"target": "recombinant human caspase-8 (Homo sapiens, UniProt Q14790)", "sequence (Q14790 217-374 limits assumed)": "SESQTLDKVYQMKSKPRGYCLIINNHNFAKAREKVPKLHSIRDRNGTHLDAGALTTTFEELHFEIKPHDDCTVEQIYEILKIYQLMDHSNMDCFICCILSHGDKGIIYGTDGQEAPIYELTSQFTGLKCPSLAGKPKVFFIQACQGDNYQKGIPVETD", "sequence (Q14790 385-479 limits assumed)": "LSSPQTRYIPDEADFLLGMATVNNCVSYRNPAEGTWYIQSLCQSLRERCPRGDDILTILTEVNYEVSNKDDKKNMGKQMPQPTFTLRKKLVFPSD", "test": "Cleavage of caspase-8 substrate by recombinant human caspase-8", "description": "as §1"}, "[3]": {"target": "T2, recombinant human caspase-3 (Homo sapiens, UniProt P42574)", "T2 sequence (P42574 29-175 limits assumed)": "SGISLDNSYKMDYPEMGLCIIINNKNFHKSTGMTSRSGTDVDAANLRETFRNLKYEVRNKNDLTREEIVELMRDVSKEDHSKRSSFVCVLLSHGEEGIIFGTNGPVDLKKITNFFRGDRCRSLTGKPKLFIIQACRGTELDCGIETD", "T2 sequence (P42574 176-277 limits assumed)": "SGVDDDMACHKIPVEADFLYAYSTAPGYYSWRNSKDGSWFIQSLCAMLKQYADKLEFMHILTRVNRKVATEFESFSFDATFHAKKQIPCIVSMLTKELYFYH", "test": "Cleavage of caspase-8 substrate by recombinant human caspase-3", "description": "as §1"}, "[4]": {"target": "T3, recombinant human caspase-6 (Homo sapiens, UniProt P55212)", "T3 sequence (P55212 24-179 limits assumed)": "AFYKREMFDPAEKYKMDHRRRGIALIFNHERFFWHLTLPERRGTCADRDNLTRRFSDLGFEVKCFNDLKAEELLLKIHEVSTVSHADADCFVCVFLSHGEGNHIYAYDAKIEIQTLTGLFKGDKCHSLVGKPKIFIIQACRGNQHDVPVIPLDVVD", "T3 sequence (P55212 194-293 limits assumed)": "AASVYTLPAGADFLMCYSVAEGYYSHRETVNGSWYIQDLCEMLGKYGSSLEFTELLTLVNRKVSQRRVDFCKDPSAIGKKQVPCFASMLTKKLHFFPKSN", "test": "Cleavage of caspase-8 substrate by recombinant human caspase-6", "description": "as §1"}},
  "note": "Peptide text beside a SMILES is read from it. * marks the point of attachment. NH(Rh110(N'-COOEt)) = CCOC(=O)Nc1ccc2c(c1)Oc1cc(N*)ccc1C21OC(=O)c2ccccc21",
  "data": [
    {"smiles": "CCOC(=O)Nc1ccc2c(c1)Oc1cc(NC(=O)[C@H](CC(=O)O)NC(=O)[C@@H](NC(=O)[C@H](CCC(=O)O)NC(=O)[C@H](CC(C)C)NC(C)=O)C(C)C)ccc1C21OC(=O)c2ccccc21", "note": "(stereo partly drawn) [N-Ac-LEVD-N′-ethoxycarbonyl R110, N-(Ac-Leu-Glu-Val-Asp)-N′-ethoxycarbonyl-Rhodamine 110] (Ac-LEVD-{NH(Rh110(N'-COOEt))})", "values": [
      {"measurement": "fluorescent signal", "setting": "[1]", "value": "virtually no signal"},
      {"measurement": "signal to background ratio", "setting": "[2]", "value": "about 26"},
      {"measurement": "signal above the enzyme blank value", "setting": "[3]", "value": "about 5 fold"},
      {"measurement": "signal to background ratio", "setting": "[4]", "value": "about 13"}
    ]}
  ]
}
